Common to all, as to experiment: DTP human tumour cell line panel, 48 h
Assay [1] has as its system ACHN.
In assay [2] the test system is BT-549.
Assay [3] deals with MCF7.
Assay [4] relates to MOLT-4.
For assay [5], the system named is SW-620.
In assay [6] the test system is MDA-N.
In assay [7] the test system is LOX IMVI.
Assay [8] relates to RPMI-8226.
Assay [9] deals with IGROV-1.
For assay [10], the system named is OVCAR-3.
Assay [11] deals with CCRF-CEM.
Assay [12] concerns SF-268.
The test system of assay [13] is MDA-MB-231.
For assay [14], the system named is CAKI-1.
For assay [15], the system named is SK-MEL-5.
The test system of assay [16] is SNB-75.
The test system of assay [17] is HOP-92.
For assay [18], the system named is HOP-62.
In assay [19] the test system is SR.

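Dose response: 5 concentrations. Exposure: 48 h. Format: 96-well plates. Endpoint: linear interpolation; highest concentration if not reached. GI50 marks 50% less growth.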 Active and inactive are the calls of the source. Rule as the data show it: active = GI50 up to about 1.1 µM and inactive = higher. A value given as a limit tells only on which side of the number the result lay.

Data on 12 compounds can be found in ChEMBL document CHEMBL1201862, “PubChem BioAssay data set” (2004).

As for `O=C(c1ccc(Cl)cc1Cl)N(C(=O)N1CCCCC1)c1ccccc1`, the GI50 in [1], in assay [2], in [3], in assay [4], in assay [5] and in assay [6] was > 100 µM (inactive) throughout. Besides, the GI50 (commonly the concentration at which growth is held to half of that of the control) in assay [7] was > 100 µM (inactive); in assay [8], > 100 µM (inactive); in assay [9], > 100 µM (inactive); in [10], 42.5 µM (inactive); in [11] it was > 100 µM (inactive); in assay [12], > 100 µM (inactive). Further, the GI50 in [13], in assay [14] and in [15] was > 100 µM (inactive) each time.
As to `O=C1CC(NC(=O)C(F)(F)F)c2c(Br)sc(N3CCNCC3)c21` (stereo unspecified), the GI50 in [1], in assay [2], in assay [3], in assay [4], in assay [5] and in assay [6] was > 100 µM (inactive) throughout. The GI50 in assay [7], in assay [9], in [10], in assay [11], in assay [12] and in assay [13] was > 100 µM (inactive) throughout. The GI50 is > 100 µM (inactive) in assay [16], 53 µM (inactive) in assay [17], > 100 µM (inactive) in assay [14] and > 100 µM (inactive) in [15].
Regarding `Cc1cc(C)c2c(c1)C/C(=C\c1cccc(C)c1C(=O)O)C2=O`, the GI50 is 87.7 µM (inactive) in assay [1]; 42.9 µM (inactive) in [2]; 50.5 µM (inactive) in [4]; 64.4 µM (inactive) in assay [5]; 55 µM (inactive) in assay [18]; 35.3 µM (inactive) in assay [6]. The GI50 in assay [7] is 69.5 µM (inactive); in [8] it was 68.5 µM (inactive); in [9], 50.7 µM (inactive); in [10], 54.5 µM (inactive); in [11], 36.6 µM (inactive); in [12], 24.4 µM (inactive). The GI50 in assay [19] is > 100 µM (inactive); in assay [13], 36.1 µM (inactive); in assay [16], 55 µM (inactive); in assay [17], > 100 µM (inactive); in assay [14], > 100 µM (inactive); in assay [15], 34.7 µM (inactive).
Turning to `N#Cc1cccc2c1Sc1ccccc1N2`, the GI50 in assay [1] was 33.4 µM (inactive); in assay [2], 28.4 µM (inactive); in assay [3], 30.2 µM (inactive); in assay [4], 11.5 µM (inactive); in assay [5], 20.7 µM (inactive); in [7], 10.4 µM (inactive). The GI50 is 27.7 µM (inactive) in [8]; 45.1 µM (inactive) in assay [9]; 57 µM (inactive) in assay [10]; 7.48 µM (inactive) in assay [11]; 30.8 µM (inactive) in assay [12]; 33.7 µM (inactive) in assay [19]. The GI50 was 24.5 µM (inactive) in assay [13]; 1.77 µM (inactive) in [16]; 32.3 µM (inactive) in assay [17]; 32.2 µM (inactive) in assay [14]; 0.553 µM (active) in [15].
`C=C1C(=O)O[C@H]2[C@H]3O[C@@H](C[C@@H]12)[C@](C)(O)CC[C@@H]1O[C@@]1(C)CCC[C@H]3C`: the GI50 in [1] is 15.5 µM (inactive); in [2] it was 12.2 µM (inactive); in [3] it was 21.4 µM (inactive); in assay [4], 30.3 µM (inactive); in assay [5], 19.2 µM (inactive); in assay [18], 78.3 µM (inactive). The GI50 in assay [7] is 16 µM (inactive); in assay [8] it was 47.2 µM (inactive); in assay [9] it was 14.7 µM (inactive); in assay [10], 16.7 µM (inactive); in [11] it was 11.4 µM (inactive); in [12] it was 15.6 µM (inactive). Further, the GI50 was 16.5 µM (inactive) in [19]; 25.1 µM (inactive) in [13]; 18.5 µM (inactive) in [16]; 16.4 µM (inactive) in assay [17]; 14.2 µM (inactive) in assay [14]; 14.7 µM (inactive) in assay [15].
With `COC(=O)C(NC(=O)C12CCC(C)(C(=O)O1)C2(C)C)c1cc(C(C)(C)C)c(O)c(C(C)(C)C)c1` (stereo unspecified), the GI50 in assay [1] was > 100 µM (inactive); in [2], > 100 µM (inactive); in assay [3], 47.5 µM (inactive); in assay [4] it was 42.2 µM (inactive); in assay [5], 77.3 µM (inactive); in [18], > 100 µM (inactive). In addition, the GI50 is > 100 µM (inactive) in assay [7]; 14.7 µM (inactive) in [8]; > 100 µM (inactive) in assay [9]; > 100 µM (inactive) in assay [10]; 39.9 µM (inactive) in assay [11]; > 100 µM (inactive) in [12]. The GI50 in assay [19] is 68.2 µM (inactive); in [13], > 100 µM (inactive); in [16], > 100 µM (inactive); in assay [17], > 100 µM (inactive); in assay [14], > 100 µM (inactive); in assay [15], 21.7 µM (inactive).
With `N#CC(Cc1ccccc1Br)N(CCC1=CCCCC1)C(c1ccccc1)c1ccccc1` (stereo unspecified), the GI50 in assay [1] was > 100 µM (inactive); in assay [2], > 100 µM (inactive); in assay [3], 52.4 µM (inactive); in assay [4], 72.3 µM (inactive); in [5] it was 73.8 µM (inactive); in assay [18] it was > 100 µM (inactive). In addition, the GI50 in assay [6] was 41.4 µM (inactive); in [8] it was 31.7 µM (inactive); in assay [9] it was 52.1 µM (inactive); in [10], 75.5 µM (inactive); in [12], > 100 µM (inactive); in assay [13] it was > 100 µM (inactive). The GI50 in assay [16] was > 100 µM (inactive); in assay [17] it was 29.7 µM (inactive); in assay [14], > 100 µM (inactive); in assay [15] it was 46 µM (inactive).
With `Nc1ncnc2c1ncn2-c1ccc([N+](=O)[O-])cn1`, the GI50 in [1], in assay [2], in assay [3], in assay [5], in [18] and in assay [6] was > 100 µM (inactive) in each case. In addition, the GI50 in assay [7], in assay [8], in [10], in assay [11], in [12] and in assay [13] was > 100 µM (inactive) in each case. In addition, the GI50 in assay [16] is 41.4 µM (inactive); in [17], > 100 µM (inactive); in [14], > 100 µM (inactive); in assay [15], > 100 µM (inactive).
As for `COc1cc(CNC2=NCCC2)cc(OC)c1OC`, the GI50 in [1], in assay [2], in assay [3], in assay [4], in assay [5] and in assay [18] was > 100 µM (inactive) each time. The GI50 in assay [6] was 34.5 µM (inactive); in assay [9], > 100 µM (inactive); in assay [10] it was > 100 µM (inactive); in [11] it was > 100 µM (inactive); in [12], > 100 µM (inactive); in assay [16] it was > 100 µM (inactive). Besides, the GI50 in assay [17], in assay [14] and in assay [15] was > 100 µM (inactive) each time.
For the compound `C=C1C(=O)O[C@H]2[C@@H](O)[C@H](C)CCC[C@]3(C)O[C@H]3CC[C@@]3(C)O[C@@H]3C[C@@H]12`, the GI50 was 1.24 µM (inactive) in assay [2]; 2.08 µM (inactive) in [3]; 1.55 µM (inactive) in assay [4]; 1.52 µM (inactive) in assay [5]; 7.4 µM (inactive) in assay [18]; 2.15 µM (inactive) in assay [8]. The GI50 in assay [9] was 5.24 µM (inactive); in [10], 4.31 µM (inactive); in [11] it was 1.58 µM (inactive); in assay [12], 6.07 µM (inactive); in assay [19], 1.43 µM (inactive); in assay [13], 4.08 µM (inactive). In addition, the GI50 in [16] is 6.9 µM (inactive); in assay [14], 6.22 µM (inactive); in assay [15], 4.04 µM (inactive).
On to `Cn1c(=O)nc2n(CCO)c(-c3ccccc3)c(-c3ccccc3)nc-2c1=O`, for which the GI50 in assay [1], in assay [2], in assay [4], in assay [5], in assay [18] and in assay [6] was > 100 µM (inactive) throughout. The GI50 in assay [7], in [8], in assay [9], in assay [10], in [11] and in [12] was > 100 µM (inactive) each time. Moreover, the GI50 in [19], in assay [13], in [16], in assay [17], in assay [14] and in assay [15] was > 100 µM (inactive) in each case.
In the case of `Cc1ccc2c(c1)[nH]c(=S)n2C=C(C(N)=O)C(N)=O`, the GI50 in assay [1], in assay [2], in assay [5], in assay [18], in assay [6] and in assay [7] was > 100 µM (inactive) each time. In addition, the GI50 in assay [9], in assay [10], in assay [12], in [13], in [16] and in assay [17] was > 100 µM (inactive) each time. Besides, the GI50 in assay [14] and in assay [15] was > 100 µM (inactive) in each case.
